Measured values: US20240166624A1, “PPARG INVERSE AGONISTS AND USES THEREOF” (Flare Therapeutics Inc., priority 2021, published 2024)

Experiments:
[1] = target: T1, PPARG/RXRA LBD heterodimer (Homo sapiens, UniProt P37231); assay: PPARγ-NCOR1 recruitment assay (TR-FRET, biotinylated NCOR1 ID2 peptide); assay type: biochemical; settings: 80 nM Rosiglitazone, 3 hours, read-out: PPARG-NCOR recruitment assay EC50
T1 construct: His-TEV-Q203-Y477; Uniprot ID P37231-2; made in house; host or cells: E. coli
Description: PPARγ-NCOR1 Recruitment Assay:
Compound potency (EC50) and maximal extent of NCOR1 recruitment to PPARG were assessed a TR-FRET binding assay measuring association of a biotinylated NCOR1 ID2 peptide (Biotin-[…]-amide) to PPARG/RXRA LBD heterodimer. Specifically, a 20 microliters of TR-FRET master mix consisting of 2 nM WT PPARG LBD (E. coli expressed, His-TEV-Q203-Y477; Uniprot ID P37231-2), 2 nM WT RXRA LBD or mutant S427F RXRA LBD (E. coli expressed, Flag-TEV-E228-T462; […]. Mixtures were incubated for 3 hours and read in an EnVision plate reader (Perkin Elmer) with Ex/Em 615/665. To determine the potency (EC50) and extent of NCOR1 recruitment, TR-FRET ratios were normalized to the average ratio of DMSO control wells (0%) and to the average maximum ratio for positive control compound (T0070907 (2-chloro-5-nitro-N-4-pyridinyl-benzamide); defined as 100%) in CDD Vault and analyzed using the Levenberg-Marquardt algorithm.
T1 sequence (O75376 2251-2273 partner, one chain of several): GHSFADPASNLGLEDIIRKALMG

[2] = tested on: ANGPTL4, a PPARG target gene, in HT1197 (RXRA S427F mutation) cells; assay: Bladder cancer pharmacodynamic assay, HT1197 cell assay (qPCR of ANGPTL4); assay type: cell-based; settings: Homo sapiens, 24 hours, 100 nM compound, relative to DMSO control
Description: Bladder Cancer Pharmacodynamic Assay
5637 (PPARG amplified) and HT1197 (RXRA S427F mutation) cells were used for assessment of modulation of PPARG target genes using quantitative PCR. Cells were treated for 24 hours with PPARG inverse agonists prior to analysis of FABP4 (IDT, Cat: Hs.PT 58.20106818) and ANGPTL4 (IDT, Cat: Hs.PT 58.25480012) expression, with expression of the housekeeping gene TBP (IDT, Cat: Hs.PT 58v.39858774) used to normalize expression across samples. Quantitative PCR was performed using an ABI QuantStudio 7 Flex Reaction system. Data were analyzed and reported relative to DMSO control using the comparative Ct method (ΔΔCt).

[3] = target: T2, PPARG/RXRA LBD heterodimer (Homo sapiens, UniProt P37231); assay: PPARγ-MED1 blockade assay (TR-FRET, biotinylated MED1 LxxLL peptide); assay type: biochemical; settings: WT PPARG LBD/WT RXRA LBD, 80 nM Rosiglitazone, 3 hours
T2 construct: His-TEV-Q203-Y477; Uniprot ID P37231-2; made in house; host or cells: E. coli
T2 sequence (P37231 203-477 isoform P37231-2): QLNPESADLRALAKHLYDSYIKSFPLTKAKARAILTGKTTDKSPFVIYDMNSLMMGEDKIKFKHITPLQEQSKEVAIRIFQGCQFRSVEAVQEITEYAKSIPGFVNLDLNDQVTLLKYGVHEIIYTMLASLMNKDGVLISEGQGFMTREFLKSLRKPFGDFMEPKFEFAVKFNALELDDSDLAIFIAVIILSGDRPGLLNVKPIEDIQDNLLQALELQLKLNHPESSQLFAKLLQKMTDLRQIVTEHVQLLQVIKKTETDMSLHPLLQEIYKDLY
T2 sequence (P19793 228-462 partner limits assumed): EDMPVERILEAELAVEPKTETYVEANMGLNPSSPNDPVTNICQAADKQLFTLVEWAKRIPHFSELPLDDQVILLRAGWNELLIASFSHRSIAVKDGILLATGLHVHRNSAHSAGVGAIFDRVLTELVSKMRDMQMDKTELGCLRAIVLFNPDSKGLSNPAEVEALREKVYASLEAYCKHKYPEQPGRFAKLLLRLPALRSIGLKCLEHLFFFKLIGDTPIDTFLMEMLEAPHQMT
Description: PPARγ-MED1 Blockade Assay:
Compound potency (IC50) and maximal extent of MED1 repulsion to PPARG were assessed a TR-FRET binding assay measuring association of a biotinylated MED1 LxxLL peptide (Biotin-[…]-amide) to PPARG/RXRA LBD heterodimer. Specifically, a 20 microliters of TR-FRET master mix consisting of 2 nM WT PPARG LBD (E. coli expressed, His-TEV-Q203-Y477; Uniprot ID P37231-2), 2 nM WT RXRA LBD (E. coli expressed, Flag-TEV-E228-T462; […]. Mixtures were incubated for 3 hours and read in an EnVision plate reader (Perkin Elmer) with Ex/Em 615/665. To determine the potency (IC50) and extent of MED1 repulsion, TR-FRET ratios were normalized to the average ratio of DMSO control wells (0%) and to the average minimum ratio for positive control compound (GW9662 (2-chloro-5-nitrobenzanilide); defined as 100%) in CDD Vault and analyzed using the Levenberg-Marquardt algorithm.

Compound | EC50 [1] | EC50 [3] | inhibition at 0.1 µM [2]
COc1cc(F)cc2[nH]c(-c3cc(C#N)ccc3Cl)cc(=O)c12 [Example 21, 4-chloro-3-(7-fluoro-5-methoxy-4-oxo-1,4-dihydroquinolin-2-yl)benzonitrile] | 1000 to 10000 nM | 1000 to 10000 nM | 87%
Cc1ccc(-c2c(F)cc3[nH]c(-c4cc(C#N)ccc4Cl)cc(=O)c3c2F)nn1 [Example 70, 4-chloro-3-(5,7-difluoro-6-(6-methylpyridazin-3-yl)-4-oxo-1,4-dihydroquinolin-2-yl)benzonitrile] | 1000 to 10000 nM | 1000 to 10000 nM | 66%
N#Cc1ccc(Cl)c(-c2cc(=O)c3c(F)c(-c4ccnc(CO)c4)c(F)cc3[nH]2)c1 [Example 71, 4-chloro-3-(5,7-difluoro-6-(2-(hydroxymethyl)pyridin-4-yl)-4-oxo-1,4-dihydroquinolin-2-yl)benzonitrile] | 1000 to 10000 nM | 1000 to 10000 nM | 51%
N#Cc1ccc(Cl)c(-c2cc(=O)c3c(F)c(-c4ccnc(C(F)F)c4)c(F)cc3[nH]2)c1 [Example 51, 4-chloro-3-(6-(2-(difluoromethyl)pyridin-4-yl)-5,7-difluoro-4-oxo-1,4-dihydroquinolin-2-yl)benzonitrile] | 100 to 1000 nM | 100 to 1000 nM | 56%
CN1CCN(c2cc3c(=O)cc(-c4cc(C#N)ccc4Cl)[nH]c3cc2Cl)CC1 [Example 105, 4-chloro-3-(7-chloro-6-(4-methylpiperazin-1-yl)-4-oxo-1,4-dihydroquinolin-2-yl)benzonitrile] | 1000 to 10000 nM | 1000 to 10000 nM | 60%
CNC(=O)c1c(F)cc2[nH]c(-c3cc(C#N)ccc3Cl)cc(=O)c2c1F [Example 26, 2-(2-chloro-5-cyanophenyl)-5,7-difluoro-N-methyl-4-oxo-1,4-dihydroquinoline-6-carboxamide] | > 10000 nM | 1000 to 10000 nM | 21%
N#Cc1ccc(Cl)c(-c2[nH]c3cc(F)cc(F)c3c(=O)c2F)c1 [Example 118, 4-chloro-3-(3,5,7-trifluoro-4-oxo-1,4-dihydroquinolin-2-yl)benzonitrile] | > 10000 nM | > 10000 nM | 
N#Cc1ccc(Cl)c(-c2[nH]c3cc(F)cc(F)c3c(=O)c2Cl)c1 [Example 119, 4-chloro-3-(3-chloro-5,7-difluoro-4-oxo-1,4-dihydroquinolin-2-yl)benzonitrile] | > 10000 nM | > 10000 nM | 
N#Cc1ccc(Cl)c(-c2cc(=O)c3cc(F)cc(F)c3[nH]2)c1 [Example 8, 4-chloro-3-(6,8-difluoro-4-oxo-1,4-dihydroquinolin-2-yl)benzonitrile] | > 10000 nM | > 10000 nM | 
N#Cc1ccc(Cl)c(-c2cc(=O)c3c(F)c(F)ccc3[nH]2)c1 [Example 10, 4-chloro-3-(5,6-difluoro-4-oxo-1,4-dihydroquinolin-2-yl)benzonitrile] | > 10000 nM | 1000 to 10000 nM | 
N#Cc1ccc(F)c(-c2cc(=O)c3c(F)cc(F)cc3[nH]2)c1 [Example 3, 3-(5,7-difluoro-4-oxo-1,4-dihydroquinolin-2-yl)-4-fluorobenzonitrile] | 1000 to 10000 nM | 1000 to 10000 nM | 
Cc1cc2[nH]c(-c3cc(C#N)ccc3Cl)cc(=O)c2cc1C#N [Example 9, 2-(2-chloro-5-cyanophenyl)-7-methyl-4-oxo-1,4-dihydroquinoline-6-carbonitrile] | 1000 to 10000 nM | 1000 to 10000 nM | 
N#Cc1ccc(Cl)c(-c2cc(=O)c3cc(C#N)c(C(F)(F)F)cc3[nH]2)c1 [Example 12, 2-(2-chloro-5-cyanophenyl)-4-oxo-7-(trifluoromethyl)-1,4-dihydroquinoline-6-carbonitrile] | > 10000 nM | 1000 to 10000 nM | 
N#Cc1ccc(Cl)c(-c2cc(=O)c3c(F)cc(C(F)(F)F)cc3[nH]2)c1 [Example 91, 4-chloro-3-(5-fluoro-4-oxo-7-(trifluoromethyl)-1,4-dihydroquinolin-2-yl)benzonitrile] | 100 to 1000 nM | 100 to 1000 nM | 
N#Cc1ccc(Cl)c(-c2cc(=O)c3c(F)c(Br)c(F)cc3[nH]2)c1 [Example 33, 3-(6-bromo-5,7-difluoro-4-oxo-1,4-dihydroquinolin-2-yl)-4-chlorobenzonitrile] | 100 to 1000 nM | 100 to 1000 nM | 

Continued, in another order:

EC50 [1] | EC50 [3] | Compound | inhibition at 0.1 µM [2]
100 to 1000 nM | 100 to 1000 nM | CC(C)(CO)n1cc(-c2c(F)cc3[nH]c(-c4cc(C#N)ccc4Cl)cc(=O)c3c2F)cn1 [Example 69, 4-chloro-3-(5,7-difluoro-6-(1-(1-hydroxy-2-methylpropan-2-yl)-1H-pyrazol-4-yl)-4-oxo-1,4-dihydroquinolin-2-yl)benzonitrile] | 68%
100 to 1000 nM | 100 to 1000 nM | N#Cc1ccc(Cl)c(-c2cc(=O)c3c(F)c(-c4ccncc4F)c(F)cc3[nH]2)c1 [Example 49, 4-chloro-3-(5,7-difluoro-6-(3-fluoropyridin-4-yl)-4-oxo-1,4-dihydroquinolin-2-yl)benzonitrile] | 52%
100 to 1000 nM | 100 to 1000 nM | N#Cc1ccc(Cl)c(-c2cc(=O)c3c(F)c(C4COC4)c(F)cc3[nH]2)c1 [Example 45, 4-chloro-3-(5,7-difluoro-6-(oxetan-3-yl)-4-oxo-1,4-dihydroquinolin-2-yl)benzonitrile] | 66%
100 to 1000 nM | 100 to 1000 nM | COc1c(F)cc2[nH]c(-c3cc(C#N)ccc3Cl)cc(=O)c2c1F [Example 34, 4-chloro-3-(5,7-difluoro-6-methoxy-4-oxo-1,4-dihydroquinolin-2-yl)benzonitrile] | 79%
100 to 1000 nM | 100 to 1000 nM | CN(C)C(=O)[C@@H]1CCCN(c2c(F)cc3[nH]c(-c4cc(C#N)ccc4Cl)cc(=O)c3c2F)C1 [Example 114, (R)-1-(2-(2-chloro-5-cyanophenyl)-5,7-difluoro-4-oxo-1,4-dihydroquinolin-6-yl)-N,N-dimethylpiperidine-3-carboxamide] | 60%
100 to 1000 nM | 10 to 100 nM | Cc1c(F)cc2[nH]c(-c3cc(C#N)ccc3Cl)cc(=O)c2c1F [Example 15, 4-chloro-3-(5,7-difluoro-6-methyl-4-oxo-1,4-dihydroquinolin-2-yl)benzonitrile] | 89%
100 to 1000 nM | 100 to 1000 nM | CN(C)C(=O)c1cc(-c2c(F)cc3[nH]c(-c4cc(C#N)ccc4Cl)cc(=O)c3c2F)cc(F)c1F [Example 86, 5-(2-(2-chloro-5-cyanophenyl)-5,7-difluoro-4-oxo-1,4-dihydroquinolin-6-yl)-2,3-difluoro-N,N-dimethylbenzamide] | 75%
100 to 1000 nM | 100 to 1000 nM | N#Cc1ccc(Cl)c(-c2cc(=O)c3c(Cl)cc(Cl)cc3[nH]2)c1 [Example 7, 4-chloro-3-(5,7-dichloro-4-oxo-1,4-dihydroquinolin-2-yl)benzonitrile] | 90%
